Assay results as given in patent US7129265B2, “Synergistic effects of amlodipine and atorvastatin metabolite as a basis for combination therapy” (priority 1999, dated 2006).

Tests used:
[1] = Membrane lipid peroxidation analysis (CHOD-Iodide assay) in membrane vesicles; assay type: biochemical
Description: In these experiments, oxidation occurred in a gradual, time-dependent manner that was measured spectrophotometrically over a 72 h period.
The separate and combined dose-dependent antioxidant activities of these agents were examined in membranes enriched with PUFA prepared at a 0.5 cholesterol to phospholipid mole ratio (Mason R P, Walter M F, Trumbore M W, Olmstead Jr. E G, Mason P E. Membrane antioxidant effects of the charged dihydropyridine calcium antagonist amlodipine. J. Mol Cell. Cardiol. 1999; 31:275–281). The lipid (dilinoleoyl phosphatidylcholine and cholesterol) used for these samples was dissolved in HPLC-grade chloroform (25.0 mg/ml). […]
Membrane lipid peroxidation was carried out at 37° C. in a shaking water bath without the addition of exogenous stimulants, as previously described in detail (Mason R P, Walter M F, Trumbore M W, Olmstead Jr. E G, Mason P E. Membrane antioxidant effects of the charged dihydropyridine calcium antagonist amlodipine. J. Mol. Cell. Cardiol. 1999; 31:275–281). […] The extent of membrane lipid peroxidation was measured by the CHOD-Iodide assay as previously described in detail (El-Saadani M, Esterbauer H, el-Sayed M, Goher M, Nassar A Y, Jurgens G. A spectrophotometric assay for lipid peroxides in serum lipoproteins using a commercially available reagent. J. Lipid. Res. 1989; 30:627–630). […]

human LDL = test: LDL oxidation determination (copper-induced, TBARS formation); assay type: biochemical; conditions: 3.0 μM; 4 h incubation; copper 10.0 μM
Description: The ability of these agents to inhibit LDL peroxidation was assessed in vitro following addition of copper (10.0 μM) by measuring the levels of thiobarbituric reactive substances (TBARS), a marker of lipid peroxidation. […] The EDTA content of the LDL samples obtained from human plasma was removed by gel filtration with PD-10 Sephadex […] filtration columns; PBS (nitrogen purged) was used as the eluent. The LDL samples (50 μg of protein/mL) were then preincubated with or without drug (3.0 μM) for 30 mm at 37° C. Oxidation of LDL was then induced by the addition of 10.0 μM CuSO4. The time course of LDL oxidation, measured by TBARS formation, was followed for 6 h at 37° C. ([…]. Potentiation of free radical-induced lipid peroxidative injury to sarcolemmal membranes by lipid amphiphiles. J. Biol. Chem. 1986; 261:1153-1157). […] The protein content of the LDL was determined using the Coomassie Protein Plus assay kit from Pierce Chemical. A rapid and sensitive method for the quantitation of microgram quantities of protein utilizing the principle of protein-dye binding. Anal. Biochem. 1976; 72:248-254).

[2] = Small angle X-ray diffraction analysis of membrane bilayer structure; assay type: physicochemical; conditions: drug to phospholipid 1:15; for overall membrane bilayer width, including surface hydration: without drug 55.5 Å
Description: The lipids (1-palmitoyl-2-oleoyl phosphatidylcholine and cholesterol) used for these samples were dissolved in HPLC-grade chloroform (10.0 mg/ml). Membrane vesicles were produced from these lipids by the same method as described for the peroxidation experiments. The final phospholipid concentration was 5.0 mg/ml buffer and the mole ratio of drug to phospholipid was 1:15. Membrane samples were oriented for diffraction analysis by subjecting them to centrifugation as previously described (Chester D W, Herbette L G, Mason R P, Joslyn A F, Triggle D J, Koppel D E. Diffusion of dihydropyridine calcium channel antagonists in cardiac sarcolemmal lipid multibilayers. Biophys. J. 1987; 52:1021–1030). Briefly, vesicles were placed in sedimentation cells that contained an aluminum foil substrate. The vesicles were sedimented in an SW-28 rotor (Beckman Instruments Fullerton, Calif.) at 35,000×g for 1.5 h at 5° C. Following centrifugation, the supernatant was removed from the pellets and the samples were then mounted on to curved glass supports. Samples were placed in sealed canisters to control relative humidity and temperature during the diffraction experiments, as previously described in detail (Chester D W, Herbette L G, Mason R P, Joslyn A F, Triggle D J, Koppel D E. Diffusion of dihydropyridine calcium channel antagonists in cardiac sarcolemmal lipid multibilayers. Biophys. J. 1987; 52: 1021–1030).
X-ray diffraction experiments were conducted by aligning the samples at grazing incidence with respect to a collimated, nickel-filtered monochromatic X-ray source (CuKα1.54 Å) produced by a high-brilliance rotating anode microfocus generator (Rigaku Rotaflex RU-200, Danvers, Mass.). The fixed geometry beam line consisted of a single, nickel-coated Franks mirror to define a line source where Kα and Kα are unresolved. […] The phases for the four-order data were determined by swelling analysis (Moody M F. X-ray diffraction pattern of nerve myelin: A method for determining the phases. Science 1963; 142:1173–117). […]

SMILES | inhibition of lipid peroxidation ([1]; 100.0 nM, membrane preparation enriched with cholesterol) | TBARS formation compared to control lipid peroxidation (100%) (human LDL) | overall membrane bilayer width, including surface hydration [2] | persistence of antioxidant effect over time ([1]; 10.0 μM, incubation up to 72 h) | effect on membrane dimensions, in words ([2]; includes intrabilayer headgroup separation)
CC(C)c1c(C(=O)Nc2ccccc2O)c(-c2ccccc2)c(-c2ccc(F)cc2)n1CCC(O)CC(O)CC(=O)O (stereo not shown) [ATM, ortho-hydroxy metabolite of atorvastatin] | 9% | 65.6±7% | 58.0 Å | – | –
Cc1c(C)c2c(c(C)c1O)CC[C@@](C)(CCC[C@H](C)CCC[C@H](C)CCCC(C)C)O2 [vitamin E, α-tocopherol] | – | – | – | could not be reproduced | –
CCOC(=O)C1=C(COCCN)NC(C)=C(C(=O)OC)C1c1ccccc1Cl (stereo not shown) [AML, amlodipine besylate] | – | 93.3±6% | 54.8 Å | – | did not significantly alter membrane dimensions
